According to the METLIN SMRT retention time set (Domingo-Almenara et al. 2019):

Assay: gradient 5% acetonitrile 3 min, to 50% in 2 min, to 85% in 15 min, held 3 min, 100 µL/min
Settings: column: Zorbax Extend-C18 2.1 x 50 mm; eluents: water / acetonitrile, 0.1% formic acid
Method in brief: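 The mobile phases were water and acetonitrile, each with 0.1% formic acid, pumped at 100 μL/min through a Zorbax Extend-C18 column (2.1 × 50 mm, 1.8 μm). Pure standards were injected as mixtures of ~100 molecules and detected by a quadrupole time-of-flight mass spectrometer in positive and negative ionization mode. Retention time came from computationally picked adduct peaks, each inspected by hand.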

SMILES | RP-LC retention time
COc1cccc(C2CC(c3cccs3)=NN2C(=O)C(OC)c2ccccc2)c1O (configuration not stated) | 937 s
Cc1ccccc1C(=O)NC1CCN(c2cc(-c3cccs3)[nH]n2)C1 (configuration not stated) | 705 s
Cc1ccc(Cl)cc1NC(=O)Cn1cccc1-c1nnc(C2CC2)o1 | 956 s
COCC1CN(Cc2cccc3[nH]ccc23)CC12CCNCC2 (configuration not stated) | 510 s
COc1ccc(NC(=O)N2CCC(n3c(-c4ccco4)nc4cccnc43)C2)cc1Cl (configuration not stated) | 753 s
CN(Cc1ccco1)C(=O)CC1CCN(C(=O)c2cc3ccccc3[nH]2)CC1 | 826 s
O=C(CCC(=O)N1CC2CCCN2c2ccccc21)NCc1cccs1 (configuration not stated) | 865 s
CCOc1c(Br)cc(C(=O)Nc2ccc(C(=O)O)cc2)cc1C(=O)c1ccc(C)cc1 | 1130 s
CN(CCc1noc(-c2ccccc2)n1)C(=O)NCCc1ccccc1 | 896 s
O=C(NCc1ccccc1Cl)C(=O)NCC1(CO)CC1 | 670 s
Cc1ccc2nc(NC(=O)Cn3c(=O)n(C(C)C)c4ccc(-c5noc(C)n5)cc43)sc2c1 | 948 s
O=C(COc1ccc(F)cc1)N1CC(n2cnnc2C2CC2)C1 | 627 s
CCCNC(=O)c1cnn(-c2ccc(-c3nc(C(C)(C)C)no3)cn2)c1C | 1070 s
Cn1nccc1C(=O)NC1CCCN(c2cc(N3CCCC3)ncn2)C1 (configuration not stated) | 590 s
COc1ccc(NC(=O)C2CCc3nc(N4CCOCC4)ncc3C2)c(C)c1 (configuration not stated) | 702 s
COc1cc2c(C(=O)Oc3cccnc3)cn(-c3ccccc3)c(=O)c2cc1OC | 836 s
Cc1nccn1C1CN(C(=O)C(C)Oc2ccccc2)C1 (configuration not stated) | 599 s
COc1cc(NC(=O)N2CCC(c3cnn(-c4ccccc4)c3)CC2)cc(OC)c1OC | 852 s
CCOC(=O)c1cccc(Nc2c(-c3ccc(Br)cc3)nc3cnccn23)c1 | 1040 s
COc1ccc(Br)cc1CNC(=O)Cn1cnc2onc(C)c2c1=O | 815 s
O=C(O)/C=C\C(=O)Nc1nccs1 | 646 s
Cc1nc(-c2csc(S(=O)(=O)N3CCCC(C(=O)Nc4ccc(C)c(Cl)c4)C3)c2)no1 (configuration not stated) | 940 s

SMILES | RP-LC retention time
O=C(c1ccoc1)N1CCCC(c2nnc3n2CCN(C2CCCC2)C3)C1 (configuration not stated) | 562 s
CN(C)C[C@@H]1CN(c2ncccn2)C[C@H]1NC(=O)c1ccc2ncccc2c1 | 557 s
Cc1cc(NC(=O)c2nc(C(C)C)oc2C)ccc1F | 1140 s
O=C(Cn1c2ccccc2c2ncn(Cc3nc(C4CC4)no3)c(=O)c21)Nc1ccc2c(c1)OCCO2 | 808 s
CCCCC(=O)N(Cc1ccc(-c2ccccc2-c2nn[nH]n2)cc1)[C@H](C(=O)O)C(C)C | 865 s
COc1ccc(F)cc1S(=O)(=O)N1C[C@@H]2C[C@H]1C[C@@H]2NC(=O)c1ccccc1 | 786 s
Cc1cccc2nnc(N3CCN(C(=O)c4cccc(Cl)c4)CC3)n12 | 584 s
Cc1nc(N)nc(N)c1-c1ccc(Cl)c(Cl)c1 | 642 s
CCOC(=O)C1CCC(CNC(=O)N2CCCn3nc(-c4cccnc4)cc3C2)CC1 (configuration not stated) | 629 s
COCc1nc2cccnc2n1C1CCN(C(=O)Nc2cc(C)cc(C)c2)CC1 | 747 s
CCOC(=O)CC1=CC(SCC(=O)N(C)c2ccccc2)=Nc2ccccc2N1 | 1100 s
Cc1cc(-c2nnc(-c3ccccc3)o2)c(C)n1CC(=O)N1CCN(c2ccccn2)CC1 | 649 s
Cc1ccc(/C=C/S(=O)(=O)N2CC(c3nc(-c4ncccn4)no3)C2)cc1 | 729 s
CC(=O)N1CCc2cc(N3CC(C(=O)NCc4ccc(C)c(C)c4)CC3=O)ccc21 (configuration not stated) | 750 s
CCCCc1ccc(N2CCn3c2nc2c3c(=O)n(CC(=O)O)c(=O)n2C)cc1 | 826 s
CCCNC(=O)C1CCCN(c2ccc(SCC(=O)Nc3ccccc3Br)nn2)C1 (configuration not stated) | 670 s
CC(C)(C)c1cccc(Nc2nc3ccncc3n(Cc3ccccc3)c2=O)c1 | 963 s
Cc1cc(N2C=C(C(=O)N3CCOCC3)S(=O)(=O)c3ccccc32)ccc1Br | 855 s
NC(=O)c1cccc2[nH]c(-c3ccc(C4CCCN4)cc3F)nc12 (configuration not stated) | 621 s
Cc1ccc(-c2noc(-c3ccc(=O)n(Cc4cc(C)ccc4C)c3)n2)cc1 | 1260 s
CC(C)S(=O)(=O)N1CC(N(C)Cc2cccnc2)C1 | 562 s
Cc1oc(-c2cccc(Cl)c2)nc1Cn1nnc(-c2nc(-c3cccnc3)no2)c1C | 1080 s

SMILES | RP-LC retention time
COc1ccc(CNC(=O)c2nnc(-c3ccc(S(=O)(=O)N(C)C)cc3)o2)cc1 | 845 s
COc1ccc(S(=O)(=O)N2CCCC(C(=O)Nc3ccc(C(N)=O)cc3)C2)cc1OC (configuration not stated) | 682 s
COc1ccc(-c2cc(C(=O)NC3CCCC3)nn2C2CCS(=O)(=O)C2)cc1 (configuration not stated) | 849 s
CCCCOC(=O)CC1C(=O)NCCN1C(=O)c1cc(Br)ccc1OCC (configuration not stated) | 841 s
O=C(Cn1nc(C2CC2)cc1C(=O)N1CCCC1)NCc1cccc(Cl)c1 | 782 s
COc1ccc(-n2ccn3cc(-c4ccc(F)cc4)nc3c2=O)cc1 | 790 s
NC(=O)C1CCN(C(=O)c2ccc(Cn3c(=O)c4cccn4c4cccnc43)cc2)CC1 | 655 s
COc1cc2c(cc1C(=O)NCCOc1ccc(Cl)cc1)OCCCO2 | 982 s
COc1ccccc1N1CCN(c2ncc(S(=O)(=O)c3ccccc3)c(N)n2)CC1 | 903 s
CCN1c2cc(Cl)ccc2C(=O)NC12CCN(C(=O)NCc1ccc(C)cc1)CC2 | 888 s
COc1ccc(NC(=O)C2=C(C)NC(=O)NC2c2ccccc2Br)c(OC)c1 (configuration not stated) | 698 s
Fc1ccc(-c2ccc(CNCCCn3ccnc3)o2)cc1Cl | 585 s
Cc1ccc(NC(=O)Cn2cnc3c(sc4nc(-c5ccccc5)ccc43)c2=O)c(C)c1 | 1060 s
Cc1cccc(-c2noc(C3CCCN3S(=O)(=O)c3cc(C)ccc3C)n2)c1 (configuration not stated) | 1260 s
CN(C[C@@H]1COCCO1)S(=O)(=O)Nc1ccc2ccc3ncc(-c4cnn(C)c4)cc3c(=O)c2c1 | 778 s
Cc1nc2nc(-c3ccc(C(C)(C)C)cc3)nn2c(C)c1CC(=O)N1CCOCC1 | 832 s
Cc1ccc(S(=O)(=O)N2C(=O)CCC2C(=O)Nc2cc(C)ccc2C)cc1 (configuration not stated) | 939 s
O=C(Cc1ccccc1F)N1CCCC1c1nc(-c2cccc(C(F)(F)F)c2)no1 (configuration not stated) | 1110 s
CC(C)n1c(=O)c2ccccc2n(Cc2nc(-c3ccc(Br)cc3)no2)c1=O | 1230 s
COc1ccc(Cl)cc1NC(=O)c1c(O)c2cccnc2n(-c2cccc(F)c2)c1=O | 1330 s
Cc1ccc(C)c(NC(=O)Cn2ccc3ccn(C)c3c2=O)c1 | 784 s
Cc1cc(C)n(C(C)CC(=O)N2CCN(S(=O)(=O)c3ccc(Cl)cc3)CC2)n1 (configuration not stated) | 750 s

SMILES | RP-LC retention time
Cc1ccc(C)c(Cn2nc3ccc(S(=O)(=O)N4CCc5ccccc5C4)cn3c2=O)c1 | 1100 s
COc1cc(CNC(=O)CCc2ccc(C(F)(F)F)cc2)cc(OC)c1OC | 809 s
CCCn1c(=O)sc2cc(S(=O)(=O)N3CCC(C(=O)Nc4ccc(OC)cc4)CC3)ccc21 | 918 s
Cc1cccc(C)c1NC(=O)Cn1nc2n(c1=O)CCCC2 | 632 s
CCn1cc(C(=O)NCc2cccc(C)c2)c2cccnc21 | 812 s
COCCN1C(=O)c2oc3ccc(F)cc3c(=O)c2C1c1ccc([N+](=O)[O-])cc1 (configuration not stated) | 803 s
O=C(Nc1nc2c(s1)CN(C(=O)C1CC=CCC1)CC2)c1cccs1 (configuration not stated) | 770 s
CCOC(=O)COc1cc(-c2ccc(C)cc2)nc2ccc(NC(=O)C3CC3)cc12 | 776 s
Cc1ccc(-n2cc(C(=O)NCCCOC(C)C)nn2)cc1 | 810 s
O=C(Nc1ccc2nc3n(c(=O)c2c1)CCCCC3)C(=O)N1CCCCCC1 | 729 s
O=C(Nc1ccc(Cl)c(Cl)c1)Nc1ccc([N+](=O)[O-])cn1 | 1100 s
COc1ccc(NC(=O)C2CCN(S(=O)(=O)c3cn(C)cn3)CC2)c(OC)c1 | 666 s
Cc1cc(C)cc(-n2c(SCC(=O)Nc3nc(C)cs3)nc3c(c2=O)SCC3)c1 | 825 s
COc1ccc(NC(=O)CN2C(=O)NC3(CCC(C)CC3)C2=O)c(OC)c1 (configuration not stated) | 827 s
Cc1cc(S(=O)(=O)C(CNC(=O)c2cccs2)c2ccco2)ccc1F (configuration not stated) | 815 s
CC(=O)N(Cc1nn(C)c2c1CN(S(=O)(=O)c1cc(C)ccc1C)CC2)c1ccccc1 | 856 s
O=C(N/N=C/c1coc2ccccc2c1=O)c1cccnc1 | 663 s
Cc1ccc(-c2ccc(=O)n(CCc3nc(-c4ccc5c(c4)OCO5)no3)n2)cc1C | 1020 s
Cc1csc(-c2cc(S(=O)(=O)N3CCN(CC(C)C)CC3)cn2CC(=O)N2CCCCC2)n1 | 724 s
CCc1noc(-c2ccc(SCC(=O)N3CCCCCC3)nc2)n1 | 939 s
Cc1cnn(CCC(=O)N2CCCCCCNC(=O)[C@@H]3CCCC[C@@H]32)c1 | 728 s
